Data from patent US5484934A, “Isothiazole derivatives, a process for production thereof and uses thereof” (Nihon Nohyaku Co., Ltd., priority 1992, dated 1996).

Assays:
Botrytis cinerea = assay: Controlling effect (curing effect) on cucumber gray mold; assay type: in vivo; conditions: 72 h, immersion of inoculated cotyledons, 15° C., read-out: Controlling effect Bc (cucumber gray mold)
Method: Controlling effect (curing effect) on cucumber gray mold The cotyledons of potted cucumber plants at the 1 leaf stage were cut off and each of them was inoculated with a mycelial tuft of gray mold fungus (Botrytis cinerea) cultured on PSA medium. After having been placed in a moist chamber at 15° C. for 24 hours, the cotyledons were immersed in a 200 ppm liquid chemical containing each compound of the present invention as active ingredient. […]

[1] = tested on: Pseudoperonospora cubensis; assay: Controlling effect on cucumber Downy mildew; assay type: in vivo; conditions: 168 h, 200 ppm spray, inoculation after 24 hours, read-out: Controlling effect Pc (cucumber downy mildew)
Pyricularia oryzae = assay: whole plant or invertebrate; assay type: in vivo; conditions: 168 h, read-out: Controlling effect Ps (rice blast)
Phytophthora infestants = assay: whole plant or invertebrate; assay type: in vivo; conditions: 168 h; read-out: Controlling effect Pi (tomato late blight)
Serpula lacrymans = assay: Inhibition of hypha growth on malt extract agar, Serpula lacrymans; conditions: read-out: Controlling effect (growth inhibition rate) SEL
Method: (§1) Each preparation to be tested was added to malt extract agar medium to adjust the concentration to 50 ppm, and the resulting mixture was dispensed into Petri dishes. As an inoculum, a prepared mycerial tuft of each test fungus was punched out together with agar by means of a 4-mm-diameter cork borer and inoculated on medium. The incubation temperature was adjusted to 28±2° .C (or 18±2° C. in the case of Selupula lacrymas).
(§2) The diameter of mycerial tuft was measured 2 to 10 days after the inoculation, and the inhibition rate of hypha growth (the following equation) was measured.

Chaetomium globosum = assay: Inhibition of hypha growth on malt extract agar, Chaetomium globosum; conditions: read-out: Controlling effect (growth inhibition rate) CHG
Method: as §1, §2
(§3) The controlling effect was evaluated according to the following criterion.

Trichoderma viride = assay: Inhibition of hypha growth on malt extract agar, Trichoderma viride; conditions: read-out: Controlling effect (growth inhibition rate) TRV
Method: as §1, §2

Tyromyces palustris = assay: Inhibition of hypha growth on malt extract agar, Tyromyces palustris; conditions: read-out: Controlling effect (growth inhibition rate) TYP
Fusarium oxysporum = assay: Inhibition of hypha growth on malt extract agar, Fusarium oxysporum; conditions: read-out: Controlling effect (growth inhibition rate) FUO
Aspergillus niger = assay: Inhibition of hypha growth on malt extract agar, Aspergillus niger; conditions: read-out: Controlling effect (growth inhibition rate) ASN
[2] = tested on: Cladosporium cladosporioides; assay: Inhibition of hypha growth on malt extract agar, Cladosporium cladosporioides; conditions: read-out: Controlling effect (growth inhibition rate) CLC
Method: as §1, §2

Rhizopus nigricans = assay: Inhibition of hypha growth on malt extract agar, Rhizopus nigricans; conditions: Rhizopus stolonifer, read-out: Controlling effect (growth inhibition rate) RHS
Method: as §1, §2

Alternaria mali = assay: Inhibition of hypha growth on malt extract agar, Alternaria mali; conditions: read-out: Controlling effect (growth inhibition rate) ALM
Method: as §1, §2, §3

Coriolus versicolor = assay: Inhibition of hypha growth on malt extract agar, Coriolus versicolor; assay type: cell-based; conditions: Trametes versicolor, 28±2° C., 2 to 10 days, read-out: Controlling effect (growth inhibition rate) COV

Row | Compound | pest or weed control at 200 ppm (Botrytis cinerea) [%] | pest or weed control at 200 ppm [1] [%] | pest or weed control at 200 ppm (Pyricularia oryzae) [%] | pest or weed control at 200 ppm (Phytophthora infestants) [%] | inhibition at 50 ppm (Serpula lacrymans) [%] | inhibition at 50 ppm (Chaetomium globosum) [%] | inhibition at 50 ppm (Trichoderma viride) [%] | inhibition at 50 ppm (Tyromyces palustris) [%] | inhibition at 50 ppm (Fusarium oxysporum) [%] | inhibition at 50 ppm (Aspergillus niger) [%] | inhibition at 50 ppm [2] [%] | inhibition at 50 ppm (Rhizopus nigricans) [%] | inhibition at 50 ppm (Alternaria mali) [%] | inhibition at 50 ppm (Coriolus versicolor) [%]
1 | CCS(=O)(=O)c1snc(OC)c1C#N [Compound 37] | 0 to 59 | 95 to 100 | 95 to 100 | 95 to 100 |  |  |  |  |  |  |  |  |  | 
2 | CC(C)S(=O)(=O)c1snc(OC(F)F)c1C#N [Compound 27] | 0 to 59 | 80 to 94 | 95 to 100 | 95 to 100 |  |  |  |  |  |  |  |  |  | 
3 | CCOC(=O)c1ccccc1S(=O)(=O)c1snc(O)c1C#N [Compound 5] | 0 to 59 | 60 to 79 | 60 to 79 | 80 to 94 |  |  |  |  |  |  |  |  |  | 
4 | CCS(=O)(=O)c1snc(OC(F)F)c1C#N [Compound 25] | 60 to 79 | 95 to 100 | 80 to 94 | 95 to 100 |  |  |  |  |  |  |  |  |  | 
5 | CCC(C)Oc1nsc(S(=O)(=O)C(F)F)c1C#N (stereo not drawn) [Compound 145] | 0 to 59 | 95 to 100 | 95 to 100 | 95 to 100 |  |  |  |  |  |  |  |  |  | 
6 | C#CCOc1nsc(S(=O)(=O)c2ccc(Cl)cc2)c1C#N [Compound 120] | 60 to 79 | 95 to 100 | 95 to 100 | 95 to 100 |  |  |  |  |  |  |  |  |  | 
7 | C#CCOc1nsc(S(=O)(=O)c2ccccc2)c1C#N [Compound 104] | 60 to 79 | 80 to 94 | 95 to 100 | 95 to 100 |  |  |  |  |  |  |  |  |  | 
8 | CC(C)(C)S(=O)(=O)c1snc(OC(F)F)c1C#N [Compound 29] |  |  |  |  | 85 to 99 | 100 | 100 | 100 | 85 to 99 | 85 to 99 | 85 to 99 | 100 | 85 to 99 | 100
9 | CCS(=O)(=O)c1snc(OCC=CCl)c1C#N [Compound 59] |  |  |  |  | 100 | 100 | 100 | 100 | 100 | 100 | 100 | 100 | 100 | 100
10 | CCOc1nsc(S(C)(=O)=O)c1C#N [Compound 21] | 60 to 79 | 95 to 100 | 95 to 100 | 95 to 100 |  |  |  |  |  |  |  |  |  | 
11 | C#CCOc1nsc(S(=O)(=O)CC)c1C#N [Compound 58] | 0 to 59 | 95 to 100 | 80 to 94 | 95 to 100 |  |  |  |  |  |  |  |  |  | 
12 | CCCOc1nsc(S(C)(=O)=O)c1C#N [Compound 43] |  |  |  |  | 100 | 85 to 99 | 85 to 99 | 100 | 85 to 99 | 85 to 99 | 100 | 100 | 85 to 99 | 100
13 | COc1nsc(S(=O)(=O)C(C)C)c1C#N [Compound 35] | 0 to 59 | 95 to 100 | 95 to 100 | 95 to 100 |  |  |  |  |  |  |  |  |  | 
14 | N#Cc1c(OC(F)F)nsc1S(=O)(=O)c1ccc(Cl)cc1 [Compound 111] |  |  |  |  | 85 to 99 | 100 | 100 | 100 | 85 to 99 | 100 | 100 | 100 | 100 | 85 to 99
15 | COC(=O)COc1nsc(S(=O)(=O)c2ccccc2)c1C#N [Compound 109] |  |  |  |  | 100 | 100 | 100 | 100 | 100 | 100 | 100 | 100 | 100 | 100
16 | N#Cc1c(OC(F)F)nsc1S(=O)(=O)C1CCCC1 [Compound 30, 3-difluoromethoxy-4-cyano-5-cyclopentylsulfonylisothiazole] |  |  |  |  | 85 to 99 | 100 | 100 | 100 | 85 to 99 | 85 to 99 | 85 to 99 | 100 | 85 to 99 | 100
17 | CCC(C)S(=O)(=O)c1snc(OC(F)F)c1C#N (stereo not drawn) [Compound 28, 3-difluoromethoxy-4-cyano-5-s-butylsulfonylisothiazole] |  |  |  |  | 100 | 85 to 99 | 100 | 100 | 100 | 85 to 99 | 85 to 99 | 100 | 100 | 100
18 | CCOc1nsc(S(=O)(=O)C(C)C)c1C#N [Compound 38] | 60 to 79 | 95 to 100 | 95 to 100 | 95 to 100 |  |  |  |  |  |  |  |  |  | 
19 | COc1ccc(S(=O)(=O)c2snc(OC)c2C#N)cc1 [Compound 94] |  |  |  |  | 100 | 100 | 100 | 100 | 100 | 100 | 100 | 100 | 100 | 100
20 | CCOc1nsc(S(=O)(=O)CC)c1C#N [Compound 23] | 60 to 79 | 95 to 100 | 95 to 100 | 95 to 100 |  |  |  |  |  |  |  |  |  | 
21 | CCOc1nsc(S(=O)(=O)c2ccc(Cl)cc2)c1C#N [Compound 100] |  |  |  |  | 100 | 100 | 100 | 100 | 100 | 100 | 100 | 100 | 100 | 100
22 | CCCCS(=O)(=O)c1snc(OC(C)C)c1C#N [Compound 52] | 60 to 79 | 95 to 100 | 80 to 94 | 95 to 100 |  |  |  |  |  |  |  |  |  | 
23 | COc1nsc(S(=O)(=O)c2ccc(C)cc2)c1C#N [Compound 90, 3-methoxy-4-cyano-5-(4-methylphenyl) sulfonylisothiazole] | 60 to 79 | 95 to 100 | 95 to 100 | 95 to 100 |  |  |  |  |  |  |  |  |  | 
24 | C=CCOc1nsc(S(=O)(=O)c2ccc(C)cc2)c1C#N [Compound 119] |  |  |  |  | 100 | 100 | 100 | 85 to 99 | 85 to 99 | 85 to 99 | 100 | 100 | 85 to 99 | 100
25 | Cc1ccc(S(=O)(=O)c2snc(O)c2C#N)cc1 [Compound 2] |  |  |  |  | 55 to 84 | 85 to 99 | 85 to 99 | 55 to 84 | 55 to 84 | 55 to 84 | 55 to 84 | 85 to 99 | 55 to 84 | 85 to 99
26 | CCOc1nsc(S(=O)(=O)C(F)F)c1C#N [Compound 141] | 80 to 94 | 95 to 100 | 95 to 100 | 95 to 100 |  |  |  |  |  |  |  |  |  | 
27 | COc1nsc(S(=O)(=O)c2ccc(F)cc2)c1C#N [Compound 96] |  |  |  |  | 100 | 100 | 100 | 100 | 100 | 100 | 100 | 100 | 100 | 100
